In patent US8450502B2, “Pharmaceutical compositions for inhibiting angiogenesis” (Industry-Academic Cooperation Foundation Yonsei University, priority 2008, dated 2013):

How the values were obtained:
[1] = system: human umbilical vein endothelial cells (HUVEC); assay: HUVEC invasion assay (Transwell, VEGF); assay type: cell-based; conditions: VEGF 30 ng/mL, HDNT 2.5, 5 μM, 18 hours
Protocol: Invasion of human umbilical vein endothelial cells (HUVEC) was measured in vitro using a TRANSWELL® chamber system (Corning Costar) equipped with a polycarbonate filter. First, a lower part of the filter was coated with 10 μl of gelatin (10 mg/mL) for 1 hour, and an upper part of the filter was coated with 10 μl of MATRIGEL® (3 mg/mL) for 2 hours. […] The coated filter was placed on the TRANSWELL®, and HUVECs (1×10^5 cells/well) were inoculated on the upper part of the filter, followed by cell culture in an incubator for 18 hours. Then, the cells were fixed with 70% methanol and stained with hematoxylin/eosin. Total cells in one filter were microscopically counted to measure a degree of cell invasion (see FIG. 4).

[2] = system: human umbilical vein endothelial cells (HUVEC); assay: Tube formation of human umbilical vein endothelial cells (VEGF-induced, Matrigel); assay type: cell-based; conditions: VEGF 30 ng/mL, HDNT 2.5, 5 μM, 8 hours
Protocol: A 48-well plate was coated with 150 μl of Matrigel (10 mg/mL, Collaborative Biomedical Products), followed by polymerization at 37° C. for 2 hours. […] The cells were cultured in an incubator for 8 hours while observing morphological changes of the cells under a microscope.

[3] = biological target: T1, mitochondrial protein QP-C (Homo sapiens, UniProt P14927); assay: Competitive binding assay by fluorescent staining in HUVECs; assay type: cell-based; conditions: for Inhibition of binding between coumarin-terpestacin and QP-C (blue fluorescence in the cytoplasm): HUVEC, pretreatment 24 hours with HDNT 10 μM or terpestacin 30 μM, coumarin-terpestacin 20 μM 2 hours
T1 construct: endogenous in cells; host or cells: HUVEC
T1 sequence (P14927 1-111): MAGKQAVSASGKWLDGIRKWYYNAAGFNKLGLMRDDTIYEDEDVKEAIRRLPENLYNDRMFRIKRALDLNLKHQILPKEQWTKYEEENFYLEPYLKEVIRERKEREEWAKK
Protocol: Human umbilical vein endothelial cells (HUVEC) were seeded on a 24-well plate (2×10^4 cells/well) and cultured in EBM-2 (LONZA®) medium containing 10% fetal bovine serum (INVITROGEN®). Then, the cells were washed with PBS buffer (pH 7.4), and the culture medium was replaced with a fresh one. The inventive compound HDNT (10 μM) or the compound terpestacin (30 μM) binding to QP-C was added to each well and the cells were incubated for 24 hours. A fluorescent dye coumarin (20 μM) and coumarin-conjugated terpestacin (20 μM) were each added to the control group and the treated group, followed by incubation for another 2 hours. The cells were washed with PBS buffer. Fluorescent intensity was observed under an IX70 fluorescent microscope (OLYMPUS®) and a microscopic image was taken (see FIG. 7).

[4] = system: mitochondrial membrane potential of HUVECs; assay: Determination of mitochondrial membrane potential (JC-1 staining); assay type: cell-based, human; conditions: HUVEC, HDNT 1, 5, 10 μM, 4 hours
Protocol: Human umbilical vein endothelial cells (HUVEC) were seeded on a 24-well plate (2×10^4 cells/well) and cultured in EBM-2 (LONZA®) medium containing 10% fetal bovine serum (INVITROGEN®). Then, the cells were washed with PBS buffer (pH 7.4) and the culture medium was then replaced with a fresh one. The inventive compound HDNT (1, 5, 10 μM) was added to the culture medium and the cells were incubated for 4 hours. In order to measure changes of the mitochondrial membrane potential, the cells were stained with […] a lipophilic cationic probe 5,5′6,6′-tetrachloro-1,1′,3,3′-tetraethylbenzimidazole-carbocyanine iodide (JC-1, MOLECULAR PROBES®) for 15 min. The carbocyanine cationic dye forms a red fluorescent J-aggregate at a hyperpolarization membrane potential (to −140 mV), and the dye maintains a green fluorescent monomeric form at a depolarization membrane potential (to −100 mV). The stained cells were washed twice with PBS buffer. A microscopic image (×100) was obtained under an IX70 fluorescent microscope OLYMPUS®) (see FIG. 5).

[5] = system: QP-C-expressing bacteriophage T7 (human QP-C); assay: Competitive binding assay by phage display; conditions: competitor 200 μM, biotinylated terpestacin 5 μM immobilized
Protocol: Bacteriophage T7 (NOVAGEN®) was purchased which encodes cDNA library obtained from live different human tissues (hepatoma, normal liver, dementia brain, normal brain, and normal stomach). A host cell E. coli BLT5615 was infected with Bacteriophage followed by amplification. Biotinylated terpestacin (5 μM) in TBS buffer (pH 7.5) was immobilized on a streptavidin-coated 96-well plate (Pierce Biotechnology), and then the amplified, bacteriophage T7 library (6×1.0^9 pfu/mL) was added to the terpestacin-immobilized wells. After being stirred at room temperature for 1 hour, bacteriophage T7 particles which were not hound to terpestacin were washed with TBS buffer to remove the non-bound bacteriophage T7 particles. Terpestacin-bound bacteriophage T7 particles were elated for 1 hour with addition of terpestacin (100 μM) dissolved in TBS buffer. The elated bacteriophage T7 particles were infected into E. coli strain BLT5615 cultured on LB agar medium. The thus-formed bacteriophage T7 plaques were isolated and DNA sequences were analyzed to obtain bacteriophage expressing a ubiquinone-binding protein (QP-C) of the mitochondria complex III.
QP-C-expressing bacteriophage T7 was infected into a host cell E. coli BLT5615, followed by amplification. […] The thus-formed bacteriophage plaques were counted and the results were compared between the treated group and the control group (see FIG. 6).

purified QP-C protein = biological target: T2, purified QP-C protein (Homo sapiens, UniProt P14927); assay: Competitive binding assay by surface plasmon resonance; conditions: compound 25 μM, QP-C protein 25 μM, biotinylated terpestacin 100 μM immobilized
T2 construct: GST (N, cleaved yes); made in house; host or cells: E. coli BL21
T2 sequence (P14927 1-111): T1 sequence (P14927 1-111)
Protocol: Using, liver tissue cDNA library as a template, a QP-C gene (GENBANK® Accession No. NM_006294 was amplified by polymerase chain reaction (PCR). Sequences of PCR primers used herein are as follows: forward primer 5′-[…]-3′, and reverse primer 5′-[…]-3′. The QP-C gene was inserted into a multi cloning site (EcoRI/XhoI site) of a pGEX-4T1 vector (Amersham Pharmacia) which was then transformed into E. coli BL21 for protein expression, IPTG (1 mM) was added to the LB culture OD600=0.6) of the transformed bacteria, followed by shaking culture at 37° C. for 4 hours. The cells were disrupted using a sonicator and the expressed GST/QP-C fusion protein was purified by addition of glutathione agarose heads (SIGMA®). In order to remove a GST portion of the fusion protein, thrombin (Amersham Pharmacia) was added thereto at room temperature, followed by overnight stirring. Only the supernatant containing the QP-C protein was recovered by centrifugation (see FIG. 2). […]
The binding sensorgram containing association and dissociation curves was obtained by BIACORE® 2000, and 50 mM NaOH (5 μl) was poured on the sensor chip surface to result in regeneration. […] A surface plasmon resonance response curve was analyzed using BIACORE® Evaluations software, version 3.1 (see FIG. 8).

[6] = system: embryonic chick chorioallantoic membrane (CAM); conditions: cited from earlier work
HIV = conditions: cited from earlier work
[7] = system: human umbilical vein endothelial cells (HUVEC); conditions: cited from earlier work

Row | SMILES | VEGF-mediated invasion of HUVECs [1] | VEGF-mediated tube formation of HUVECs [2] | Inhibition of binding between coumarin-terpestacin and QP-C (blue fluorescence in the cytoplasm) [3] | Change of mitochondrial membrane potential (JC-1 red/green fluorescence) [4] | Inhibition of binding between biotinylated terpestacin and QP-C-expressing bacteriophage T7 [5] | Inhibition of the binding between biotin-terpestacin and QP-C protein (purified QP-C protein) [%] | Fluorescence staining of HUVECs ([3]; 20 μM, 2 hours) | Angiogenesis of embryonic chick chorioallantoic membrane (CAM) in vivo [6] | Formation of syncytium during HIV infections (HIV) | Angiogenic responses of HUVEC in vitro [7] | inhibition at 25 µM (purified QP-C protein; read-out: Inhibition of the binding between biotin-terpestacin and QP-C protein) [%]
1 | O=C1Sc2ccc(S(=O)(=O)Nc3ccc(O)c4ccccc34)c3cccc1c23 [HDNT, 6-((1-hydroxynaphthalen-4-ylamino)dioxysulfone)-2H-naphtho[1,8-bc]thiophen-2-one] | inhibited VEGF-mediated tube formation and invasion of HUVECs in a concentration-dependent manner | inhibited VEGF-mediated tube formation and invasion of HUVECs in a concentration-dependent manner | blue fluorescence was significantly decreased | disrupts the mitochondrial membrane potential | effectively inhibited | 40 |  |  |  |  | 
2 | C/C1=C/CC/C(C)=C/CC2(C)C(=O)C(O)=C(C(C)COC(=O)CCCCCNC(=O)CCCCCNC(=O)Cc3c(C)c4ccc(N)cc4oc3=O)C2C/C=C(\C)C(O)CC1 (stereo not shown) [coumarin-terpestacin] |  |  |  |  |  |  | intense blue fluorescence in the cytoplasm |  |  |  | 
3 | C/C1=C\C[C@]2(C)C(=O)C(O)=C([C@H](C)CO)[C@H]2C/C=C(\C)[C@@H](O)CC/C(C)=C/CC1 [terpestacin] |  |  | significant attenuation of blue fluorescence |  | significantly inhibited |  |  | strongly inhibits angiogenesis | inhibit the formation of syncytium | strongly inhibits angiogenic responses | ≤ 60
